# In BigSolDB 2.1:
compound,measurement,setting,value
COc1cc2nc(Cl)nc(N)c2cc1OC,solubility (mole fraction),"in 1,4-dioxane, 288.15 K",0.000108
same,solubility (mole fraction),"in 1,4-dioxane, 293.15 K",0.000129
same,solubility (mole fraction),"in 1,4-dioxane, 298.15 K",0.000154
same,solubility (mole fraction),"in 1,4-dioxane, 303.15 K",0.000183
same,solubility (mole fraction),"in 1,4-dioxane, 308.15 K",0.000216
same,solubility (mole fraction),"in 1,4-dioxane, 313.15 K",0.000253
same,solubility (mole fraction),"in DMF, 273.15 K",0.00286
same,solubility (mole fraction),"in DMF, 278.15 K",0.00336
same,solubility (mole fraction),"in DMF, 283.15 K",0.00405
same,solubility (mole fraction),"in DMF, 288.15 K",0.00495
same,solubility (mole fraction),"in DMF, 293.15 K",0.00586
same,solubility (mole fraction),"in DMF, 298.15 K",0.00687
same,solubility (mole fraction),"in DMF, 303.15 K",0.00817
same,solubility (mole fraction),"in DMF, 308.15 K",0.00979
same,solubility (mole fraction),"in DMF, 313.15 K",0.0116
same,solubility (mole fraction),"in NMP, 273.15 K",0.00572
same,solubility (mole fraction),"in NMP, 278.15 K",0.00648
same,solubility (mole fraction),"in NMP, 283.15 K",0.00746
same,solubility (mole fraction),"in NMP, 288.15 K",0.00838
same,solubility (mole fraction),"in NMP, 293.15 K",0.00932
same,solubility (mole fraction),"in NMP, 298.15 K",0.0103
same,solubility (mole fraction),"in NMP, 303.15 K",0.0113
same,solubility (mole fraction),"in NMP, 308.15 K",0.0124
same,solubility (mole fraction),"in NMP, 313.15 K",0.0137
same,solubility (mole fraction),"in cyclohexanone, 273.15 K",0.00109
same,solubility (mole fraction),"in cyclohexanone, 278.15 K",0.0013
same,solubility (mole fraction),"in cyclohexanone, 283.15 K",0.00151
same,solubility (mole fraction),"in cyclohexanone, 288.15 K",0.00177
same,solubility (mole fraction),"in cyclohexanone, 293.15 K",0.00206
same,solubility (mole fraction),"in cyclohexanone, 298.15 K",0.00241
same,solubility (mole fraction),"in cyclohexanone, 303.15 K",0.0028
same,solubility (mole fraction),"in cyclohexanone, 308.15 K",0.00324
same,solubility (mole fraction),"in cyclohexanone, 313.15 K",0.00385
same,solubility (mole fraction),"in ethanol, 273.15 K",0.000169
same,solubility (mole fraction),"in ethanol, 278.15 K",0.000206
same,solubility (mole fraction),"in ethanol, 283.15 K",0.000246
same,solubility (mole fraction),"in ethanol, 288.15 K",0.0003
same,solubility (mole fraction),"in ethanol, 293.15 K",0.000359
same,solubility (mole fraction),"in ethanol, 298.15 K",0.000423
same,solubility (mole fraction),"in ethanol, 303.15 K",0.000497
same,solubility (mole fraction),"in ethanol, 308.15 K",0.000585
same,solubility (mole fraction),"in ethanol, 313.15 K",0.000693
same,solubility (mole fraction),"in ethyl acetate, 273.15 K",0.000278
same,solubility (mole fraction),"in ethyl acetate, 278.15 K",0.000322
same,solubility (mole fraction),"in ethyl acetate, 283.15 K",0.000375
same,solubility (mole fraction),"in ethyl acetate, 288.15 K",0.000443
same,solubility (mole fraction),"in ethyl acetate, 293.15 K",0.000522
same,solubility (mole fraction),"in ethyl acetate, 298.15 K",0.000618
same,solubility (mole fraction),"in ethyl acetate, 303.15 K",0.000725
same,solubility (mole fraction),"in ethyl acetate, 308.15 K",0.000853
same,solubility (mole fraction),"in ethyl acetate, 313.15 K",0.00101
same,solubility (mole fraction),"in isobutanol, 273.15 K",0.000232
same,solubility (mole fraction),"in isobutanol, 278.15 K",0.000272
same,solubility (mole fraction),"in isobutanol, 283.15 K",0.000325
same,solubility (mole fraction),"in isobutanol, 288.15 K",0.00038
same,solubility (mole fraction),"in isobutanol, 293.15 K",0.000443
same,solubility (mole fraction),"in isobutanol, 298.15 K",0.000514
same,solubility (mole fraction),"in isobutanol, 303.15 K",0.000601
same,solubility (mole fraction),"in isobutanol, 308.15 K",0.000706
same,solubility (mole fraction),"in isobutanol, 313.15 K",0.000841
same,solubility (mole fraction),"in isopropanol, 273.15 K",0.000142
same,solubility (mole fraction),"in isopropanol, 278.15 K",0.000173
same,solubility (mole fraction),"in isopropanol, 283.15 K",0.000209
same,solubility (mole fraction),"in isopropanol, 288.15 K",0.000257
same,solubility (mole fraction),"in isopropanol, 293.15 K",0.000306
same,solubility (mole fraction),"in isopropanol, 298.15 K",0.000362
same,solubility (mole fraction),"in isopropanol, 303.15 K",0.000434
same,solubility (mole fraction),"in isopropanol, 308.15 K",0.000518
same,solubility (mole fraction),"in isopropanol, 313.15 K",0.000622
same,solubility (mole fraction),"in methanol, 273.15 K",0.000109
same,solubility (mole fraction),"in methanol, 278.15 K",0.000139
same,solubility (mole fraction),"in methanol, 283.15 K",0.000171
same,solubility (mole fraction),"in methanol, 288.15 K",0.00021
same,solubility (mole fraction),"in methanol, 293.15 K",0.000255
same,solubility (mole fraction),"in methanol, 298.15 K",0.00031
same,solubility (mole fraction),"in methanol, 303.15 K",0.000378
same,solubility (mole fraction),"in methanol, 308.15 K",0.000458
same,solubility (mole fraction),"in methanol, 313.15 K",0.000544
same,solubility (mole fraction),"in n-butanol, 273.15 K",0.000252
same,solubility (mole fraction),"in n-butanol, 278.15 K",0.000294
same,solubility (mole fraction),"in n-butanol, 283.15 K",0.000345
same,solubility (mole fraction),"in n-butanol, 288.15 K",0.000402
same,solubility (mole fraction),"in n-butanol, 293.15 K",0.000467
same,solubility (mole fraction),"in n-butanol, 298.15 K",0.000548
same,solubility (mole fraction),"in n-butanol, 303.15 K",0.000648
same,solubility (mole fraction),"in n-butanol, 308.15 K",0.000763
same,solubility (mole fraction),"in n-butanol, 313.15 K",0.000929
same,solubility (mole fraction),"in n-propanol, 273.15 K",0.000209
same,solubility (mole fraction),"in n-propanol, 278.15 K",0.000245
same,solubility (mole fraction),"in n-propanol, 283.15 K",0.00029
same,solubility (mole fraction),"in n-propanol, 288.15 K",0.000343
same,solubility (mole fraction),"in n-propanol, 293.15 K",0.000403
same,solubility (mole fraction),"in n-propanol, 298.15 K",0.000471
same,solubility (mole fraction),"in n-propanol, 303.15 K",0.000552
same,solubility (mole fraction),"in n-propanol, 308.15 K",0.000657
same,solubility (mole fraction),"in n-propanol, 313.15 K",0.000769
same,solubility (mole fraction),"in toluene, 273.15 K",2e-06
same,solubility (mole fraction),"in toluene, 278.15 K",2.7e-06
same,solubility (mole fraction),"in toluene, 283.15 K",3.7e-06
same,solubility (mole fraction),"in toluene, 288.15 K",5.1e-06
same,solubility (mole fraction),"in toluene, 293.15 K",6.9e-06
same,solubility (mole fraction),"in toluene, 298.15 K",9.2e-06
same,solubility (mole fraction),"in toluene, 303.15 K",1.26e-05
same,solubility (mole fraction),"in toluene, 308.15 K",1.66e-05
same,solubility (mole fraction),"in toluene, 313.15 K",2.17e-05
